According to ChEMBL document CHEMBL4706618, “Discovery of lysosome-targeted covalent anticancer agents based on isosteviol skeleton” (Eur J Med Chem, 2021):

Assay: GSH reactivity in pH 7.4 sodium phosphate deuterium oxide buffer assessed as half life in presence of glutathione measured up to 6 hrs by 1H NMR analysis
Type: ADME
Conditions: sodium phosphate deuterium oxide buffer with glutathione

half-life: 30 min
SMILES: C=C1C(=O)C=C[C@]2(C)[C@@H]1CC[C@@]13C/C(=N\OC)[C@@](C)(CC[C@H]12)C3
